“And” between values parts separate entries of the source, which are not always exact repeats. Equal values may be shown once.
Tested on: 3D7, SLI- and CR- WT, N309K, N330K parasites
Assay: Parasite growth over 72 h in the presence of GlcN (LDH)
Type: cell-based, Plasmodium falciparum
Details: for Growth over 72 h, 0.25 mM / 0 mM / Growth over 72 h, 2.5 mM / 0 mM: biological replicates 1-4; for Growth over 72 h (mean of raw readings) / Growth over 72 h normalised to 0 mM GlcN (= 100): biological replicates 1-3; for Growth over 72 h (raw reading): biological replicates 1-3, DMSO data of M833 and W991 sets
Procedure: thereafter called SLI-WT, SLI-N309K and SLI-N330K). gDNA was extracted and a PCR was conducted to check for correct integration using primers START_5’UTR.F and START_Seq.R (Table S2); the same PCR on 3D7 gDNA was used as a control, as no bands should be observed in the 3D7 samples. (B) The sequencing of the PCR […]
and that SLI-N309K and SLI-N330K contain the correct mutations. (C) Growth of 3D7, SLI-WT, -N309K or -N330K over 72 h in the presence of 0, 0.25 or 2.5 mM GlcN was measured with an LDH assay. Growth was normalised to the 0 mM GlcN condition. n=4 biological replicates. Ordinary one-way ANOVA with Dunnett’s multiple comparison test (comparison to the 0 mM condition). **: p<0.005. ***: p<0.0005. ****: p<0.0001. (D) Similar to SLI parasites, CRISPR transfectant parasites were cloned:
CR-WT clone D2, CR-N309K clone C10 and CR-N330K clone B2, thereafter called CR-WT, CR-N309K and CR-N330K. A PCR was conducted to check for correct integration using primers START_5’UTR.F and START_IntR1; 3D7 gDNA was used […]
wild-type version of pfstart1, and that CR-N309K and CR-N330K contain the correct mutations. (F) Growth of 3D7, CR-WT, -N309K or -N330K over 72 h in the presence of 0, 0.25 or 2.5 mM GlcN was measured by LDH assay (same as (C); n=6 biological replicates). Source data are provided as a Source Data file. […]
and compound 4. Note that M-833 was first purchased from MolPort (MolPort -002-267-916) then made in-house at WEHI: the differences observed in EC50s across experiments are attributed to the different batches of M -833. For some experiments, 0, 0.25 or 2.5 mM of glucosamine (GlcN) was also added. Experiments were set up in technical duplicates or triplicates. Following a freeze -thaw cycle, lactate dehydrogenase (LDH) activity was assessed as an indicator of parasite growt h 5. 30 μL of parasite culture was incubated for 30 min in the dark with 75 μL Malstat mixture (0.1 M Tris pH 9.0, 20 g/L lactic acid, pH 7.5, 0.2% Triton-X100, 0.5 g/L acetylpyridine adenine dinucleotide (APAD, Sigma), 200 μg/mL nitroblue tetrazolium (NBT; Sigma), 1 μg/mL phenozine ethosulfate (PES; Sigma)). Absorbance was then measured at 650 nm, transformed using the formula below, plotted against the logarithm of the concentrations, and a non-linear regression (log(inhibitor) vs. response, variable slope) was calculated using GraphPad Prism to assess the half-inhibitory […]
Growth inhibition % = (1 − average(sample)− average(uRBC)) ∗ 100 […]
The DMSO samples were also used to assess growth of parasite in the presence of 0.25 and 2.5 mM GlcN (normalised by DMSO in 0 mM GlcN). […]

[1] = CR-N309K parasites, 0.25 mM GlcN
[2] = CR-N309K parasites, 2.5 mM GlcN
[3] = CR-N330K parasites, 0.25 mM GlcN
[4] = CR-N330K parasites, 2.5 mM GlcN

N[C@H]1C(O)O[C@H](CO)[C@@H](O)[C@@H]1O (some centres unmarked) [GlcN, glucosamine]
Growth over 72 h, 0.25 mM / 0 mM (3D7, 0.25 mM GlcN): 98.6386 and 100.075 and 99.6504 and 92.7264 | Growth over 72 h, 2.5 mM / 0 mM (3D7, 2.5 mM GlcN): 77.3282 and 91.4546 and 81.2488 and 87.4334 | reduced growth (3D7, 2.5 mM GlcN, 72 h): ~ 5% | Growth over 72 h (mean of raw readings) (3D7 parasites, 0.25 mM GlcN): 0.1623 and 0.1668 and 0.4453 and 0.6687 and 0.4936 and 0.5657 | Growth over 72 h normalised to 0 mM GlcN (= 100) (3D7 parasites, 0.25 mM GlcN): 99.2357 and 96.4441 and 83.2336 and 124.534 and 89.0493 and 116.399 | Growth over 72 h (raw reading) (3D7 parasites, 0.25 mM GlcN): 0.1683 and 0.1751 and 0.4506 and 0.6702 and 0.5044 and 0.558 and 0.1563 and 0.1585 and 0.44 and 0.6673 and 0.4828 and 0.5734 | Growth over 72 h (mean of raw readings) (3D7 parasites, 2.5 mM GlcN): 0.1303 and 0.133 and 0.3936 and 0.3428 and 0.669 and 0.5661 | Growth over 72 h normalised to 0 mM GlcN (= 100) (3D7 parasites, 2.5 mM GlcN): 79.6393 and 76.9008 and 73.5607 and 61.8528 and 124.572 and 116.481 | Growth over 72 h (raw reading) (3D7 parasites, 2.5 mM GlcN): 0.137 and 0.138 and 0.4268 and 0.3683 and 0.6835 and 0.563 and 0.1235 and 0.128 and 0.3603 and 0.3174 and 0.6544 and 0.5692 | Growth over 72 h (mean of raw readings) [1]: 0.127 and 0.1406 and 0.5399 and 0.6825 and 0.5806 and 0.5768 | Growth over 72 h normalised to 0 mM GlcN (= 100) [1]: 83.6627 and 84.6177 and 96.1271 and 111.164 and 88.2706 and 96.8194 | Growth over 72 h (raw reading) [1]: 0.13 and 0.1405 and 0.5297 and 0.694 and 0.5709 and 0.5788 and 0.124 and 0.1406 and 0.55 and 0.6711 and 0.5903 and 0.5749 | Growth over 72 h (mean of raw readings) [2]: 0.0842 and 0.08195 and 0.3029 and 0.2482 and 0.3611 and 0.3044 | Growth over 72 h normalised to 0 mM GlcN (= 100) [2]: 55.4677 and 49.3377 and 53.9263 and 37.7271 and 58.8111 and 51.0826 | Growth over 72 h (raw reading) [2]: 0.0834 (2×) and 0.3049 and 0.2428 and 0.3713 and 0.3087 and 0.085 and 0.0805 and 0.3008 and 0.2535 and 0.3509 and 0.3 | growth less than in the absence of GlcN (CR-N309K, 2.5 mM GlcN, 72 h): 50% | Growth over 72 h (mean of raw readings) [3]: 0.2349 and 0.2489 and 0.3654 and 0.7776 and 0.3572 and 0.7298 | Growth over 72 h normalised to 0 mM GlcN (= 100) [3]: 94.757 and 83.1329 and 83.9922 and 102.755 and 71.8539 and 97.5734 | Growth over 72 h (raw reading) [3]: 0.2498 and 0.2614 and 0.3895 and 0.7636 and 0.4102 and 0.7252 and 0.2201 and 0.2364 and 0.3414 and 0.7917 and 0.3041 and 0.7344 | Growth over 72 h (mean of raw readings) [4]: 0.1315 and 0.1328 and 0.1893 and 0.172 and 0.7048 and 0.6593 | Growth over 72 h normalised to 0 mM GlcN (= 100) [4]: 53.0349 and 44.3554 and 43.5072 and 34.6042 and 93.1356 and 88.1543 | Growth over 72 h (raw reading) [4]: 0.1385 and 0.1375 and 0.1953 and 0.1767 and 0.7177 and 0.6721 and 0.1245 and 0.1281 and 0.1833 and 0.1673 and 0.692 and 0.6466 | Growth over 72 h (mean of raw readings) (CR-WT parasites, 0.25 mM GlcN): 0.2131 and 0.2403 and 0.4884 and 0.5805 and 0.5445 and 0.4768 | Growth over 72 h normalised to 0 mM GlcN (= 100) (CR-WT parasites, 0.25 mM GlcN): 94.7322 and 91.6651 and 102.262 and 415.2 and 101.567 and 345.382 | Growth over 72 h (raw reading) (CR-WT parasites, 0.25 mM GlcN): 0.2167 and 0.241 and 0.4948 and 0.5777 and 0.5446 and 0.4838 and 0.2095 and 0.2396 and 0.4819 and 0.5832 and 0.5444 and 0.4698 | Growth over 72 h (mean of raw readings) (CR-WT parasites, 2.5 mM GlcN): 0.1497 and 0.1625 and 0.3987 and 0.36 and 0.5094 and 0.4461 | Growth over 72 h normalised to 0 mM GlcN (= 100) (CR-WT parasites, 2.5 mM GlcN): 66.5703 and 61.9874 and 83.4991 and 67.1517 and 364.413 and 323.18 | Growth over 72 h (raw reading) (CR-WT parasites, 2.5 mM GlcN): 0.1508 and 0.1623 and 0.3842 and 0.3527 and 0.5062 and 0.4479 and 0.1487 and 0.1627 and 0.4133 and 0.3673 and 0.5127 and 0.4444 | Growth over 72 h, 0.25 mM / 0 mM (SLI-N309K, 0.25 mM GlcN): 84.2717 and 93.806 and 99.7943 and 79.4202 | Growth over 72 h, 2.5 mM / 0 mM (SLI-N309K, 2.5 mM GlcN): 52.5042 and 74.3497 and 80.6954 and 57.9574 | Growth over 72 h, 0.25 mM / 0 mM (SLI-N330K, 0.25 mM GlcN): 88.793 and 84.0431 and 73.2682 and 86.1624 | Growth over 72 h, 2.5 mM / 0 mM (SLI-N330K, 2.5 mM GlcN): 52.5716 and 59.0221 and 51.4095 and 62.9405 | Growth over 72 h, 0.25 mM / 0 mM (SLI-WT, 0.25 mM GlcN): 108.267 and 89.5536 and 80.5452 and 87.3943 | Growth over 72 h, 2.5 mM / 0 mM (SLI-WT, 2.5 mM GlcN): 78.3352 and 62.7379 and 46.4436 and 59.8798 | growth less than in the absence of GlcN (most SLI- and CR- lines, 2.5 mM GlcN, 72 h): approximately 40%

Reference: publication PMC11189555, “Aryl amino acetamides prevent Plasmodium falciparum ring development via targeting the lipid-transfer protein PfSTART1” (Nature Communications, 2024)
